Experimental data as given in PubChem BioAssay AID2060886 (Molecular Pharmacology Branch, DTP, NCI, 2025).
pIC50: −log10 of the molar value. “And” between values parts separate entries of the source, which are not always exact repeats. Identical values can stand only once.

Test system: 653999-131-R-J2-PDC complex spheroids, growth inhibition
Test: Anticancer human tumor 653999-131-R-J2-PDC patient-derived lung adenocarcinoma cell line growth inhibition [RAS]
Settings: for pIC50: curve of first compound; for viability, T/C: stronger effect = lower value; for IC50: curve of compound
Method in brief: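 Multi-cell-type spheroids: tumor cells plus HUVEC endothelial cells and mesenchymal stem cells. RAS-pathway inhibitors were combined with targeted agents, each dosed in half-log steps down from clinical Cmax, or from 10 microM when Cmax was unknown.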

[1] = second compound 0.000949 µM, first compound 0.0316 µM
[2] = second compound 0.000949 µM, first compound 0.1 µM
[3] = second compound 0.000949 µM, first compound 0.316 µM
[4] = second compound 0.000949 µM, first compound 1 µM
[5] = second compound 0.000949 µM, first compound 3.16 µM
[6] = second compound 0.000949 µM, first compound 10 µM
[7] = second compound 0.003 µM, first compound 0.0316 µM
[8] = second compound 0.003 µM, first compound 0.1 µM
[9] = second compound 0.003 µM, first compound 0.316 µM
[10] = second compound 0.003 µM, first compound 1 µM
[11] = second compound 0.003 µM, first compound 3.16 µM
[12] = second compound 0.003 µM, first compound 10 µM
[13] = second compound 0.00949 µM, first compound 0.0316 µM
[14] = second compound 0.00949 µM, first compound 0.1 µM
[15] = second compound 0.00949 µM, first compound 0.316 µM
[16] = second compound 0.00949 µM, first compound 1 µM
[17] = second compound 0.00949 µM, first compound 3.16 µM
[18] = second compound 0.00949 µM, first compound 10 µM
[19] = second compound 0.03 µM, first compound 0.0316 µM
[20] = second compound 0.03 µM, first compound 0.1 µM
[21] = second compound 0.03 µM, first compound 0.316 µM
[22] = second compound 0.03 µM, first compound 1 µM
[23] = second compound 0.03 µM, first compound 3.16 µM
[24] = second compound 0.03 µM, first compound 10 µM
[25] = second compound 0.0949 µM, first compound 0.0316 µM
[26] = second compound 0.0949 µM, first compound 0.1 µM
[27] = second compound 0.0949 µM, first compound 0.316 µM
[28] = second compound 0.0949 µM, first compound 1 µM
[29] = second compound 0.0949 µM, first compound 3.16 µM
[30] = second compound 0.0949 µM, first compound 10 µM
[31] = second compound 0.3 µM, first compound 0.0316 µM
[32] = second compound 0.3 µM, first compound 0.1 µM
[33] = second compound 0.3 µM, first compound 0.316 µM
[34] = second compound 0.3 µM, first compound 1 µM
[35] = second compound 0.3 µM, first compound 3.16 µM
[36] = second compound 0.3 µM, first compound 10 µM
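Further: spheroids exposed to the agents for seven days before the readout.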

CCC(CC)c1cc(NC2CCC(N)C2)n2nccc2n1 (stereo not given) + CCn1c(-c2cccnc2C(C)OC)c2c3cc(ccc31)N1CCOC(CC(NC(=O)C(C(C)C)N(C)C(=O)C3(F)CCN(C(=O)C#CC(C)(C)N(C)C)CC3)C(=O)N3CCCC(N3)C(=O)OCC(C)(C)C2)C1
pIC50 (second compound 0.000949 µM): 5.70
pIC50 (second compound 0.003 µM): 5.70
pIC50 (second compound 0.00949 µM): 5.71
pIC50 (second compound 0.03 µM): 5.68
pIC50 (second compound 0.0949 µM): 5.74
pIC50 (second compound 0.3 µM): 5.72
viability, T/C [1]: 101%
viability, T/C [2]: 99.6%
viability, T/C [3]: 102%
viability, T/C [4]: 98.6%
viability, T/C [5]: 15%
viability, T/C [6]: 22.1%
viability, T/C [7]: 111%
viability, T/C [8]: 107%
viability, T/C [9]: 106%
viability, T/C [10]: 95.9%
viability, T/C [11]: 17.7%
viability, T/C [12]: 18.7%
viability, T/C [13]: 102%
viability, T/C [14]: 114%
viability, T/C [15]: 106%
viability, T/C [16]: 93%
viability, T/C [17]: 14.4%
viability, T/C [18]: 22.5%
viability, T/C [19]: 96%
viability, T/C [20]: 107%
viability, T/C [21]: 114%
viability, T/C [22]: 112%
viability, T/C [23]: 17%
viability, T/C [24]: 19.1%
viability, T/C [25]: 97.5%
viability, T/C [26]: 115%
viability, T/C [27]: 121%
viability, T/C [28]: 88.5%
viability, T/C [29]: 12%
viability, T/C [30]: 20%
viability, T/C [31]: 92.1%
viability, T/C [32]: 97.6%
viability, T/C [33]: 108%
viability, T/C [34]: 92.1%
viability, T/C [35]: 13.7%
viability, T/C [36]: 20.5%

Nc1ccn(C2OC(CO)C(O)C2(F)F)c(=O)n1 (stereo not given) + C#Cc1c(F)ccc2cc(O)cc(-c3ncc4c(N5CC6CCC(C5)N6)nc(OCC56CCCN5CC(F)C6)nc4c3F)c12
pIC50 (second compound 0.0316 µM): 7.15
pIC50 (second compound 0.1 µM): 7.43
pIC50 (second compound 0.316 µM): 7.93
pIC50 (second compound 1 µM): 8.47
pIC50 (second compound 3.16 µM): > 8.50
pIC50 (second compound 10 µM): > 8.50
viability, T/C (second compound 0.0316 µM, first compound 0.00316 µM): 98.5%
viability, T/C (second compound 0.0316 µM, first compound 0.01 µM): 74.4%
viability, T/C (second compound 0.0316 µM, first compound 0.0316 µM): 58.3%
viability, T/C (second compound 0.0316 µM, first compound 0.1 µM): 48.5%
viability, T/C (second compound 0.0316 µM, first compound 0.316 µM): 36.6%
viability, T/C (second compound 0.0316 µM, first compound 1 µM): 32.4%
viability, T/C (second compound 0.1 µM, first compound 0.00316 µM): 96.9%
viability, T/C (second compound 0.1 µM, first compound 0.01 µM): 59.8%
viability, T/C (second compound 0.1 µM, first compound 0.0316 µM): 56.4%
viability, T/C (second compound 0.1 µM, first compound 0.1 µM): 46%
viability, T/C (second compound 0.1 µM, first compound 0.316 µM): 34.6%
viability, T/C (second compound 0.1 µM, first compound 1 µM): 31.4%
viability, T/C (second compound 0.316 µM, first compound 0.00316 µM): 58.1%
viability, T/C (second compound 0.316 µM, first compound 0.01 µM): 52.4%
viability, T/C (second compound 0.316 µM, first compound 0.0316 µM): 39.2%
viability, T/C (second compound 0.316 µM, first compound 0.1 µM): 32.1%
viability, T/C (second compound 0.316 µM, first compound 0.316 µM): 27.6%
viability, T/C (second compound 0.316 µM, first compound 1 µM): 26.5%
viability, T/C (second compound 1 µM, first compound 0.00316 µM): 50.5%
viability, T/C (second compound 1 µM, first compound 0.01 µM): 43%
viability, T/C (second compound 1 µM, first compound 0.0316 µM): 29.8%
viability, T/C (second compound 1 µM, first compound 0.1 µM): 20.9%
viability, T/C (second compound 1 µM, first compound 0.316 µM): 19.9%
viability, T/C (second compound 1 µM, first compound 1 µM): 18.9%
viability, T/C (second compound 3.16 µM, first compound 0.00316 µM): 35.4%
viability, T/C (second compound 3.16 µM, first compound 0.01 µM): 28.4%
viability, T/C (second compound 3.16 µM, first compound 0.0316 µM): 19.1%
viability, T/C (second compound 3.16 µM, first compound 0.1 µM): 14.9%
viability, T/C (second compound 3.16 µM, first compound 0.316 µM): 14.6%
viability, T/C (second compound 3.16 µM, first compound 1 µM): 14.5%
viability, T/C (second compound 10 µM, first compound 0.00316 µM): 33.6%
viability, T/C (second compound 10 µM, first compound 0.01 µM): 13.5%
viability, T/C (second compound 10 µM, first compound 0.0316 µM): 21.2%
viability, T/C (second compound 10 µM, first compound 0.1 µM): 13.9%
viability, T/C (second compound 10 µM, first compound 0.316 µM): 12.7%
viability, T/C (second compound 10 µM, first compound 1 µM): 10.1%

CC(Nc1ccc2c(c1)OCCn1cc(N3C(=O)OCC3C(F)F)nc1-2)C(N)=O (stereo not given)
viability, T/C (compound 0.0316 µM): 79.8% [middle of 4 runs]
viability, T/C (compound 0.1 µM): 77.8% [middle of 4 runs]
viability, T/C (compound 0.316 µM): 57.4% [middle of 4 runs]
viability, T/C (compound 1 µM): 45.6% [middle of 4 runs]
viability, T/C (compound 3.16 µM): 36.4% [middle of 4 runs]
viability, T/C (compound 10 µM): 25.5% [middle of 4 runs]
IC50: 727 nM [middle of 4 runs]

Nc1ccn(C2OC(CO)C(O)C2(F)F)c(=O)n1 (stereo not given)
viability, T/C (compound 0.00316 µM): 90.2% [middle of 4 runs]
viability, T/C (compound 0.01 µM): 76.4% [middle of 4 runs]
viability, T/C (compound 0.0316 µM): 62.9% [middle of 4 runs]
viability, T/C (compound 0.1 µM): 51.2% [middle of 4 runs]
viability, T/C (compound 0.316 µM): 43.1% [middle of 4 runs]
viability, T/C (compound 1 µM): 34.1% and 30.3% (2×) and 33.9%
IC50: 99.5 nM [middle of 4 runs]

NC1c2ccccc2OC12CCN(c1cnc3c(N4CCCc5ncccc54)n[nH]c3n1)CC2 (stereo not given) + CCn1c(-c2cc(N3CCN(C)CC3)cnc2C(C)OC)c2c3cc(ccc31)-c1csc(n1)CC(NC(=O)C1CC1C)C(=O)N1CCCC(N1)C(=O)OCC(C)(C)C2
pIC50 (second compound 0.000949 µM): < 5.00
pIC50 (second compound 0.003 µM): 7.18
pIC50 (second compound 0.00949 µM): > 7.50
pIC50 (second compound 0.03 µM): > 7.50
pIC50 (second compound 0.0949 µM): > 7.50
pIC50 (second compound 0.3 µM): > 7.50
viability, T/C [1]: 67%
viability, T/C [2]: 60.7%
viability, T/C [3]: 55.2%
viability, T/C [4]: 59.3%
viability, T/C [5]: 65.6%
viability, T/C [6]: 63.4%
viability, T/C [7]: 60.7%
viability, T/C [8]: 40.6%
viability, T/C [9]: 40.3%
viability, T/C [10]: 49.5%
viability, T/C [11]: 41.3%
viability, T/C [12]: 42.1%
viability, T/C [13]: 40.9%
viability, T/C [14]: 34%
viability, T/C [15]: 28.5%
viability, T/C [16]: 33.9%
viability, T/C [17]: 24.7%
viability, T/C [18]: 24%
viability, T/C [19]: 24.1%
viability, T/C [20]: 20.3%
viability, T/C [21]: 12.9%
viability, T/C [22]: 9.46%
viability, T/C [23]: 12.2%
viability, T/C [24]: 11.1%
viability, T/C [25]: 17.6%
viability, T/C [26]: 17%
viability, T/C [27]: 12.7%
viability, T/C [28]: 7.56%
viability, T/C [29]: 5.76%
viability, T/C [30]: 6.14%
viability, T/C [31]: 16.5%
viability, T/C [32]: 10.2%
viability, T/C [33]: 7.36%
viability, T/C [34]: 6.93%
viability, T/C [35]: 7.17%
viability, T/C [36]: 4.26%
